Laboratory results published in ChEMBL document CHEMBL1799957, “Cerebrosides and 2-pyridone alkaloids from the halotolerant fungus Penicillium chrysogenum grown in a hypersaline medium” (J Nat Prod, 2011).
≈ marks a conversion by molar mass, not a printed value.

What was measured:
[1] = tested on: Bacillus subtilis; test: Antimicrobial activity against Bacillus subtilis by agar dilution method; type: functional
[2] = tested on: Escherichia coli; test: Antimicrobial activity against Escherichia coli by agar dilution method; type: functional
[3] = tested on: Pseudomonas aeruginosa; test: Antimicrobial activity against Pseudomonas aeruginosa by agar dilution method; type: functional
[4] = tested on: Staphylococcus aureus; test: Antimicrobial activity against Staphylococcus aureus by agar dilution method; type: functional
[5] = tested on: Klebsiella aerogenes; test: Antimicrobial activity against Enterobacter aerogenes by agar dilution method; type: functional
[6] = tested on: Candida albicans; test: Antimicrobial activity against Candida albicans by agar dilution method; type: functional
[7] = tested on: HeLa; test: Cytotoxicity against human HeLa cells by MTT assay; type: functional, cell-based
[8] = tested on: P388; test: Cytotoxicity against mouse P388 cells by MTT assay; type: functional, cell-based
[9] = tested on: HL-60; test: Cytotoxicity against human HL60 cells by MTT assay; type: functional, cell-based
[10] = tested on: A549; test: Cytotoxicity against human A549 cells by SRB assay; type: functional, cell-based

Row | Structure (SMILES) | MIC [1] [µM] | MIC [2] [µM] | MIC [3] [µM] | MIC [4] [µM] | MIC [5] [µM] | MIC [6] [µM] | IC50 [7] [µM] | IC50 [8] [µM] | IC50 [9] [µM] | IC50 [10] [µM]
1 | CCCCCCCCCCCCCCC/C=C/[C@@H](O)C(=O)N[C@@H](CO[C@@H]1O[C@H](CO)[C@@H](O)[C@H](O)[C@H]1O)[C@H](O)/C=C/CC/C=C(\C)CCCCCCCC [CHRYSOGESIDE D] | > 150 | > 150 | > 150 | > 150 | > 150 | > 150 | > 50 | > 50 |  | 
2 | CCCCCCCCCCCCCCCCC[C@@H](O)C(=O)N[C@@H](CO[C@@H]1O[C@H](CO)[C@@H](O)[C@H](O)[C@H]1O)[C@H](O)/C=C/CC/C=C(\C)CCCCCC [CHRYSOGESIDE E] | > 150 | > 150 | > 150 | > 150 | > 150 | > 150 | > 50 | > 50 |  | 
3 | CCCCCCC/C=C\CC/C=C/[C@@H](O)[C@H](CO[C@@H]1O[C@H](CO)[C@@H](O)[C@H](O)[C@H]1O)NC(=O)[C@H](O)/C=C/CCCCCCCCCCCCCC [CHRYSOGESIDE A] | > 150 | > 150 | > 150 | > 150 | > 150 | > 150 | > 50 | > 50 |  | 
4 | CCCCCCCCCCCCCCC/C=C/[C@@H](O)C(=O)N[C@@H](CO[C@@H]1O[C@H](CO)[C@@H](O)[C@H](O)[C@H]1O)[C@H](O)/C=C/CC/C=C(\C)CCCCCC [CHRYSOGESIDE B] | > 150 | > 150 | > 150 | > 150 | 1.72 (≈ 1.25 µg/mL) | > 150 | > 50 | > 50 |  | 
5 | CCCCCCCCCCCCCCC/C=C/[C@@H](O)C(=O)N[C@@H](CO[C@@H]1O[C@H](CO)[C@@H](O)[C@H](O)[C@H]1O)[C@H](O)/C=C/CC/C=C(\C)CCCCC [CHRYSOGESIDE C] | > 150 | > 150 | > 150 | > 150 | > 150 | > 150 | > 50 | > 50 |  | 
6 | CCC[C@H](O)c1ccc(=O)[nH]c1C [CHRYSOGEDONE A] | > 150 | > 150 | > 150 | > 150 | > 150 | > 150 |  |  | > 50 | > 50
7 | CCC[C@H](O)c1ccc(=O)[nH]c1CO [CHRYSOGEDONE B] | > 150 | > 150 | > 150 | > 150 | > 150 | > 150 |  |  | > 50 | > 50
